What was measured:
[1] = Printing plate evaluation: halftone and tonal values at 146 lpi; details: difference of tonal value of 5% halftone at 146 lpi versus plate without additional stabilizer
Method: To obtain a cliché, the laser ablatable mask on the front side was imaged using a TfxX 20 laser (Flint Group Germany GmbH, Germany, rotational speed: 10 to 11 rounds/s, power: 35 W (100% intensity)). The relief precursor was exposed to UV light from the backside through the carrier foil for 20 to 40 s and from the front side through the mask layer for 15 min. During the exposure at room temperature (being around 18-25° C.), no active heating was present. As a result of the crosslinking reaction due to the exposure, the temperature of the plate rose to around 40° C. (machine type: Combi FIII (Flint Group Germany GmbH, Germany), UVA intensity […], UVA tube type: Philips TL 80 W/10-R). […]
In this example, the effect of the stabilizer on the tonal values of the resulting printing plates was assessed since conventional stabilizers can impact tonal values as they may hinder curing. […] The stabilizer impact on the tonal value was calculated as the difference of the tonal value of the 5% halftone at 146 lpi of a plate without any additional stabilizer compared to the respective tonal value of a plate comprising a stabilizer.

[2] = Kneading trials at 180° C., onset of crosslinking seen as increase in torque; type: physicochemical; details: kneading at 180° C. for 60 min, SBS binder plus stabilizer
Method: Kneading trials were carried out using a ThermoFisher Scientifc Haake kneading device equipped with a Haake PolyLab OS RheoDrive 7 control unit, a Haake Rheomix 600 OS heating and kneading chamber with Roller Rotors R600. The torque and the sample temperature were recorded using the software PolySoft, version 2.1.0.1. For the measurement, a temperature of 180° C. was applied. The measurement was carried out for 60 min, respectively. The components were added to the kneading device as solids and were allowed to be mixed in the kneading device.
In the given sample, the amount of stabilizer was varied in the range of 0 to 1.0 parts by weight and the excess was counterbalanced by the amount of binder, respectively.
An increase in torque indicated the onset of crosslinking of the SBS-rubber due to insufficient stabilization. Without additional stabilizer, an increase in torque was observed within the first 10 min of measurement time. With BHT as stabilizer, an increase in torque was detected after 28 min of heating at 180° C. With ascorbyl palmitate, the best result was achieved, where crosslinking was observed after 50 min.

[3] = Thermal melt stability: onset time of crosslinking, SIS-rubber based formulation; type: physicochemical
Method: The thermal melt stability was assessed by recording the melt viscosity during heating. Crosslinking of the sample was recorded as an increase in viscosity. Oscillatory rheological measurements were carried out using a Kinexus lab+rheometer (Malvern Instruments Ltd., UK) under isothermal (T=160° C.) conditions. Data was recorded using the corresponding software rSPACE version 1.76 (Malvern Instruments Ltd., UK). As measurement geometry, parallel plates with a diameter of 2.5 cm of the upper plate were chosen. As sample, a disc of a relief precursor with a diameter of 2.5 cm was used. Prior to measurement, any foils (e.g. the cover sheet) and mask layers were removed from the relief precursor. Measurements were carried out in oscillation single frequency mode. The frequency was set to 1 Hz. The gap between the parallel plates was set constant to the respective sample thickness. Data points were recorded every 15 s. The complex shear viscosity η* was monitored over time t. The “onset time of crosslinking” was identified as “the time when the difference quotient Δη*/Δt is ≥1 Pa, with Δt=15 s”. A higher onset time indicates a higher thermal stability and stability towards mechanical stress.
In this example, another trial formulation based on a SIS tri-block copolymer was used. […]

Stabilizer impact on tonal value [1]: 0.8%
Onset time t/min [2]: 50 min
Effect on the onset time of crosslinking compared with an equimolar amount of BHT [3]: more than five times as high
Compound: CCCCCCCCCCCCCCCC(=O)OC[C@H](O)[C@H]1OC(=O)C(O)=C1O [Ascorbyl palmitate]

— patent US20250019520A1, “RELIEF PRECURSORS WITH ENHANCED STABILITY” (XSYS Germany GmbH, priority 2023, published 2025)
